Measured values taken from patent EP2945948B1, “CRYSTALLINE FORM II OF ANAGRELIDE HYDROCHLORIDE MONOHYDRATE” (Synthon BV, priority 2013, dated 2014).
Entries after “also recorded” stand apart in the source; their conditions may differ. Counter-ions that a name gives are not always drawn. Each block holds one molecule with its values, some of them ahead of it.

How the values were obtained:
[1] = Stability of form II: suspension stirred in solvent, solid analysed by XRPD; format: physicochemical
Description: 2.0 g of anagrelide hydrochloride monohydrate form II was suspended in 20 ml solvent. […] At certain time points, a small amount of the suspension was filtered over a P3-glass filter (reduced pressure). The solids were air-dried overnight at RT.
(§1) In the above examples, the XRPD patterns were recorded on a Bruker-AXS D8 vario (Θ/2Θ geometry, reflection mode, Vantec PSD detector) operating at the following settings: […]

[2] = cited from earlier work
[3] = Conversion study in ethanol at specified stirring temperature, XRPD; format: physicochemical; details: for Crystal form (XRPD): ethanol, stirring time 2 hours only
Description: The suspension was filtered over a P3-glass filter (reduced pressure), washed with solvent and dried.
as §1

[4] = Stability of form I: suspension stirred in solvent, solid analysed by XRPD; format: physicochemical; details: RT
Description: […] The suspension was filtered over a P3-glass filter (reduced pressure), washed with solvent and dried.
as §1

[5] = Instant solubility in buffers, Milli-Q water and 0.1 M HCl (HPLC-UV); format: physicochemical; details: USP acetate buffer pH 4.5, USP phosphate buffer pH 6.8, Milli-Q water and 0.1 M HCl; room temperature; 0-60 minutes; Figure 5; hydrochloride monohydrate
Description: The instant solubility of anagrelide hydrochloride monohydrate form II, form I and free base was determined in USP acetate buffer pH 4.5, USP phosphate buffer pH 6.8, Milli-Q water (herein below "MQ") and 0.1 M HCl. About 30 mg of the drug substance was transferred into a clear 50 ml sample jar and a stirring bar was added. Subsequently 30 ml of test medium was added; the vial was closed and placed on a magnetic stirrer. Under constant stirring at room temperature samples of 2 ml were taken at t=0, 10, 20, 30, 40, 50, and 60 minutes. The samples were immediately filtered through a 0.45 µm syringe disk filter (first ml was discarded) and analyzed at once with the HPLC-UV method described in Table 1. The solubility was calculated in mg/ml anagrelide free base against an external standard (AGL.hcl.mhy.120310) dissolved in acetonitrile/milli-Q (ACN/MQ) (50:50). Table 1 HPLC-UV parameters used for instant solubility testing

[6] = Polymorphic stability on exposure to air / air-drying; format: physicochemical

XRPD ([4]; 2-propanol, 16 hours): Form I + II | XRPD ([4]; Acetone, 2 days): Form II | XRPD ([4]; Demi-water, 30 min): Anagrelide base | XRPD ([4]; Demi-water, 180 min): Anagrelide base | XRPD ([4]; Ethanol, 30 min): Form II | XRPD ([4]; Ethanol, 16 hours): Form II | XRPD ([4]; Ethyl acetate, 2 days): Form II
Structure (SMILES): O=C1CN2Cc3c(ccc(Cl)c3Cl)N=C2N1 [form I, anagrelide hydrochloride monohydrate]

XRPD ([1]; 2-propanol, 30 min, RT): Form II | XRPD ([1]; 2-propanol, 60 min, RT): Form II | XRPD ([1]; 2-propanol, 120 min, RT): Form II | XRPD ([1]; 2-propanol, overnight, RT): Form II | XRPD ([1]; Demi-water, 30 min, RT): Form II + anagrelide base | XRPD ([1]; Demi-water, 60 min, RT): Form II + anagrelide base | XRPD ([1]; Demi-water, 120 min, RT): Form II + anagrelide base | XRPD ([1]; Demi-water, 180 min, RT): Anagrelide base | XRPD ([1]; Ethanol, 30 min, RT): Form II | XRPD ([1]; Ethanol, 60 min, RT): Form II | XRPD ([1]; Ethanol, 120 min, RT): Form II | XRPD ([1]; Ethanol, 3 hours, reflux): Form I | XRPD ([1]; Ethanol, overnight, RT): Form II | transition point ([3]; form II / form I, suspension in ethanol): around 72.5 °C | stable at temperatures ([3]; suspension in ethanol): below 70 °C | instant solubility compared to form I [5]: more soluble; also recorded: higher | polymorphic change on air-drying ([6]; air-drying at ambient temperature): does not cause any polymorphic change
Structure (SMILES): O=C1CN2Cc3c(ccc(Cl)c3Cl)N=C2N1 [form II, anagrelide hydrochloride monohydrate]
polymorphic stability ([1]; ambient temperature, ethanol, 2-propanol, acetone, ethyl acetate, compared with form I): polymorphically stable at ambient temperature and even more stable than form I | stability against aqueous hydrolysis ([1]; stirred in demi-water for up to 180 minutes, compared with form I): more stable against aqueous hydrolysis than form I

Further lines, the molecule ahead of its results:

Structure (SMILES): O=C1CN2Cc3c(ccc(Cl)c3Cl)N=C2N1 [Anagrelide hydrochloride monohydrate]
converts into anagrelide free base ([1]; in water): 30 to 180 min | solubility in water [2]: very slightly soluble

Structure (SMILES): Cl.O.O=C1CN2Cc3c(ccc(Cl)c3Cl)N=C2N1 [anagrelide hydrochloride monohydrate]
Crystal form (XRPD) ([3]; stirring temperature 72.5 °C): I + II | Crystal form (XRPD) ([3]; stirring temperature 75 °C): mostly I, some II left

Structure (SMILES): O=C1CN2Cc3c(ccc(Cl)c3Cl)N=C2N1 [form III, anagrelide hydrochloride monohydrate]
stability when exposed to air ([6]; exposed to air): converts into form I or a mixture of forms I and II
